Measured values: PMC9516332 (Frontiers in Oncology, 2022)
pIC50: −log10 of the molar value. Read-outs that look alike come from different tables or passages of the source.

Test system: 134 cancer cell lines
Experiment: Cell viability assay (ATPlite, 72 hours), IC50 on cancer cell line panel

In the case of `CC(C)(C)c1nc(-c2cccc(NS(=O)(=O)c3c(F)cccc3F)c2F)c(-c2ccnc(N)n2)s1` [dabrafenib], the pIC50 (Homo sapiens, MOLT-4, read-out: IC50 in cell proliferation assay, MOLT-4 cell line) was < 5.00, the pIC50 (Homo sapiens, MV4-11, read-out: IC50 in cell proliferation assay, MV4-11 cell line (FLT3 ITD)) was 5.10 and the pIC50 (Homo sapiens, MeWo, read-out: IC50 in cell proliferation assay, MeWo cell line) was 5.99. For the same molecule, the pIC50 (Homo sapiens, NCCIT, read-out: IC50 in cell proliferation assay, NCC-IT cell line) was 5.93, the pIC50 (Homo sapiens, NCI-H82, read-out: IC50 in cell proliferation assay, cell line NCI-H82) was 5.95 and the pIC50 (Homo sapiens, NCI-H460, read-out: IC50 in cell proliferation assay, NCI-H460 cell line) was 5.94. For the same molecule, the pIC50 (Homo sapiens, NCI-H661, read-out: IC50 in cell proliferation assay, NCI-H661 cell line) was < 5.00, the pIC50 (Homo sapiens, NCI-H716, read-out: IC50 in cell proliferation assay, cell line NCI-H716 (FGFR2-COL14A1)) was 5.93 and the pIC50 (Homo sapiens, NCI-H1650, read-out: IC50 in cell proliferation assay, NCI-H1650 cell line (EGFR exon19del)) was < 5.00. For the same molecule, the pIC50 (Homo sapiens, NCI-H1975, read-out: IC50 in cell proliferation assay, NCI-H1975 cell line (EGFR p.L858R + p.T790M)) was 5.85, the pIC50 (Homo sapiens, NCI-H2228, read-out: IC50 in cell proliferation assay, NCI-H2228 cell line (EML4-ALK)) was 5.66 and the pIC50 (Homo sapiens, OVCAR-3, read-out: IC50 in cell proliferation assay, cell line OVCAR-3) was 5.98. The pIC50 (Homo sapiens, PFSK-1, read-out: IC50 in cell proliferation assay, cell line PFSK-1) was < 5.00, the pIC50 (Homo sapiens, RL95-2, read-out: IC50 in cell proliferation assay, cell line RL95-2 (EGFR p.A289V)) was 5.52 and the pIC50 (Homo sapiens, RPMI-7951, read-out: IC50 in cell proliferation assay, cell line RPMI-7951 (BRAF p.V600E)) was 7.37. For the same molecule, the pIC50 (Homo sapiens, RS4-11, read-out: IC50 in cell proliferation assay, cell line RS4;11) was 5.92, the pIC50 (Homo sapiens, Rec1, read-out: IC50 in cell proliferation assay, cell line REC-1) was 6.01 and the pIC50 (Homo sapiens, SHP77, read-out: IC50 in cell proliferation assay, cell line SHP-77) was < 5.00. For the same molecule, the pIC50 (Homo sapiens, SK-BR-3, read-out: IC50 in cell proliferation assay, cell line SK-BR-3 (ERBB2 amplification)) was 5.80, the pIC50 (Homo sapiens, SK-N-AS, read-out: IC50 in cell proliferation assay, cell line SK-N-AS) was 5.52 and the pIC50 (Homo sapiens, SK-N-FI, read-out: IC50 in cell proliferation assay, cell line SK-N-FI) was < 5.00. For the same molecule, the pIC50 (Homo sapiens, SK-N-MC, read-out: IC50 in cell proliferation assay, cell line SK-N-MC) was 5.75, the pIC50 (Homo sapiens, SK-N-SH, read-out: IC50 in cell proliferation assay, cell line SK-N-SH (ALK p.F1174L)) was 5.67 and the pIC50 (Homo sapiens, SNU-5, read-out: IC50 in cell proliferation assay, cell line SNU-5 (MET amplification)) was < 5.00. The pIC50 (Homo sapiens, SNU-16, read-out: IC50 in cell proliferation assay, cell line SNU-16 (FGFR2 amplification)) was < 5.00, the pIC50 (Homo sapiens, SNU-C2B, read-out: IC50 in cell proliferation assay, cell line SNU-C2B (EGFR p.R165Q)) was < 5.00 and the pIC50 (Homo sapiens, SU-DHL-1, read-out: IC50 in cell proliferation assay, cell line SU-DHL-1 (NPM1-ALK)) was < 5.00. For the same molecule, the pIC50 (Homo sapiens, SU-DHL-6, read-out: IC50 in cell proliferation assay, cell line SU-DHL-6) was 5.58, the pIC50 (Homo sapiens, SUP-T1, read-out: IC50 in cell proliferation assay, cell line SUP-T1) was < 5.00 and the pIC50 (Homo sapiens, SW48, read-out: IC50 in cell proliferation assay, cell line SW48 (EGFR p.G719S)) was 5.52. The pIC50 (Homo sapiens, SW480, read-out: IC50 in cell proliferation assay, cell line SW480) was 5.52, the pIC50 (Homo sapiens, SW626, read-out: IC50 in cell proliferation assay, cell line SW626) was < 5.00 and the pIC50 (Homo sapiens, SW780, read-out: IC50 in cell proliferation assay, cell line SW780 (FGFR3-BAIAP2L1)) was < 5.00. For the same molecule, the pIC50 (Homo sapiens, SW837, read-out: IC50 in cell proliferation assay, cell line SW837) was < 5.00, the pIC50 (Homo sapiens, SW872, read-out: IC50 in cell proliferation assay, cell line SW872 (BRAF p.V600E)) was 7.60 and the pIC50 (Homo sapiens, SW900, read-out: IC50 in cell proliferation assay, cell line SW900) was 5.95. For the same molecule, the pIC50 (Homo sapiens, SW948, read-out: IC50 in cell proliferation assay, cell line SW948) was 5.57, the pIC50 (Homo sapiens, SW982, read-out: IC50 in cell proliferation assay, cell line SW982 (BRAF p.V600E)) was 5.94 and the pIC50 (Homo sapiens, SW-620, read-out: IC50 in cell proliferation assay, cell line SW620) was < 5.00. The pIC50 (Homo sapiens, T98G, read-out: IC50 in cell proliferation assay, cell line T98G) was < 5.00, the pIC50 (Homo sapiens, TCC-SUP, read-out: IC50 in cell proliferation assay, cell line TCCSUP) was 5.68 and the pIC50 (Homo sapiens, THP-1, read-out: IC50 in cell proliferation assay, cell line THP-1) was < 5.00. For the same molecule, the pIC50 (Homo sapiens, U2OS, read-out: IC50 in cell proliferation assay, cell line U2OS) was < 5.00, the pIC50 (Homo sapiens, U-87 MG, read-out: IC50 in cell proliferation assay, cell line U-87MG ATCC) was 5.44 and the pIC50 (Homo sapiens, U-118-MG, read-out: IC50 in cell proliferation assay, cell line U-118MG) was 5.66. The pIC50 (Homo sapiens, UMUC3, read-out: IC50 in cell proliferation assay, cell line UM-UC-3) was 5.71, the pIC50 (Hs766T, read-out: IC50 in cell proliferation assay, Hs 766T cell line) was < 5.00 and the pIC50 (L-82, read-out: IC50 in cell proliferation assay, L-82 cell line (NPM1-ALK)) was < 5.00. The pIC50 (Rh30, read-out: IC50 in cell proliferation assay, cell line Rh30) was < 5.00, the pIC50 (read-out: IC50 in cell proliferation assay, 11-18 cell line (EGFR p.L858R)) was < 5.00 and the pIC50 (read-out: IC50 in cell proliferation assay, Hs 852.T cell line) was 5.85. The pIC50 (read-out: IC50 in cell proliferation assay, JAR cell line) was 5.81, the pIC50 (read-out: IC50 in cell proliferation assay, cell line 5637) was 6.25 and the pIC50 (read-out: IC50 in cell proliferation assay, cell line A-388) was < 5.00. The pIC50 (read-out: IC50 in cell proliferation assay, cell line DB) was 5.76, the pIC50 (read-out: IC50 in cell proliferation assay, cell line DEL (NPM1-ALK)) was < 5.00 and the pIC50 (read-out: IC50 in cell proliferation assay, cell line ES-2 (BRAF p.V600E)) was 6.89. For the same molecule, the pIC50 (read-out: IC50 in cell proliferation assay, cell line PA-1) was 5.77, the pIC50 (read-out: IC50 in cell proliferation assay, cell line PC-3) was < 5.00 and the pIC50 (read-out: IC50 in cell proliferation assay, cell line RD) was 5.75. The pIC50 (read-out: IC50 in cell proliferation assay, cell line RKO (BRAF p.V600E)) was 7.96, the pIC50 (read-out: IC50 in cell proliferation assay, cell line RL) was < 5.00 and the pIC50 (read-out: IC50 in cell proliferation assay, cell line RT-4 (FGFR3-TACC3)) was < 5.00. The pIC50 (read-out: IC50 in cell proliferation assay, cell line SR (NPM1-ALK)) was 5.75, the pIC50 (read-out: IC50 in cell proliferation assay, cell line T24) was 5.93 and the pIC50 (read-out: IC50 in cell proliferation assay, cell line TT (RET p.C634W)) was < 5.00. It also gave a pIC50 (read-out: IC50 in cell proliferation assay, cell line VA-ES-BJ) of 5.68.
